# Measurements taken from patent US20250320213A1, “Nitrogen-Containing Heterocyclic Compounds” (Pfizer Inc., priority 2024, published 2025).
# Where two headings read alike, the source gives them in different places.
# Experiments:
# STAT6 = biological target: T1, STAT6 (Homo sapiens, UniProt P42226); experiment: STAT6 Reporter Luciferase Assay (IL-13 stimulated HaCaT keratinocyte NanoLuc reporter cells); format: cell-based; details: read-out: Reporter EC50
# T1 construct: stably transfected HaCaT keratinocyte cell line, which expresses NanoLuc luciferase reporter gene under the transcriptional control of the STAT6 responsive promoter; endogenous in cells; host or cells: HaCaT keratinocyte reporter cell line (stably transfected with a NanoLuc reporter)
# T1 sequence (P42226 1-847): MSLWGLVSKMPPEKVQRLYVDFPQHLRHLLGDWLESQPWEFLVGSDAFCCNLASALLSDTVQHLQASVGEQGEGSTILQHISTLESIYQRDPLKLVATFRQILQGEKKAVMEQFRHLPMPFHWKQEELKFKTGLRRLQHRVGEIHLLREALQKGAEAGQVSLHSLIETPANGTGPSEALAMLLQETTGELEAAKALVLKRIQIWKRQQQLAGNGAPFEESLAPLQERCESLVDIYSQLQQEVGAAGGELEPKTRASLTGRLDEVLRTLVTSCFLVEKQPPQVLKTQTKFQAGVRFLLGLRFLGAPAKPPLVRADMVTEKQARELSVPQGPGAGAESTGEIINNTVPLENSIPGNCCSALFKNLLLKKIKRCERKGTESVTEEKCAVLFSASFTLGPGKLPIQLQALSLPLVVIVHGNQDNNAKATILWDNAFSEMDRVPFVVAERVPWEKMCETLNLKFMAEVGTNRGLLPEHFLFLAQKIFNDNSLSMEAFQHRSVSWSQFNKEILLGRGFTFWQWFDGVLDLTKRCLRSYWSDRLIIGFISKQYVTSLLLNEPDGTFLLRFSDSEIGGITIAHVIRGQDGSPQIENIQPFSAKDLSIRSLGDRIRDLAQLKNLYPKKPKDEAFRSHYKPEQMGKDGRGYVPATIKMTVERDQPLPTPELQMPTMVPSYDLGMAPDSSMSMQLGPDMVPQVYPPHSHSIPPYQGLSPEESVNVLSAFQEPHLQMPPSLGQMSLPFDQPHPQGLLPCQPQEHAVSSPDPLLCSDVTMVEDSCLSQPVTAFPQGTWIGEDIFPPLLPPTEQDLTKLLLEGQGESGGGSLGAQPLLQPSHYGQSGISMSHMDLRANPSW
# How it was run: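 Stably transfected HaCaT cells carrying NanoLuc under the STAT6-responsive IL-13Ra2 promoter were pre-treated with compound (11-point, 4-fold series, duplicate) for 2 h at 37 °C, then stimulated with 0.12 nM IL-13 for 4 h. Nano-Glo luminescence was read after 15 min.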
# [1] = test system: CCL17 secretion in peripheral human whole blood; experiment: Human Whole Blood (HWB) CCL17 TR-FRET Assay (IL-13 stimulated CCL17 secretion); format: cell-based
# How it was run: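 IC50 values reflect inhibition of IL-13-driven CCL17 release in human whole blood. Blood was preincubated with compound 2 h, stimulated 48 h at 37 °C with IL-13 (10 ng/mL final), and serum CCL17 was measured by TR-FRET.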
# [2] = IL-13 stimulated HaCaT STAT6 NanoLuc reporter cells
# [3] = Homo sapiens, 48 h, human whole blood, IL-13 stimulated
# [4] = STAT6 NanoLuc luciferase reporter, IL-13 stimulated HaCaT keratinocyte cells
# [5] = Homo sapiens, 48 h, inhibition of CCL17 secretion in human whole blood, 10 ng/mL IL13, 48 hours
# [6] = human whole blood, IL-13 stimulated, 48 hours
# [7] = Homo sapiens, 48 h, human whole blood, 10 ng/mL IL13, 48 hours
SMILES,EC50 (STAT6; [2]) [µM],"IC50 [1, 7] [µM]",other results
"CC(CO)n1nc(C(=O)NCc2ccc(NC(=O)N(C)C)cc2)c2c1CCN(c1ccc(C(=O)N(C)C)cn1)C2 (racemic) [Example 351, rac-(R)-5-(5-(dimethylcarbamoyl)pyridin-2-yl)-N-(4-(3,3-dimethylureido)benzyl)-1-(1-hydroxypropan-2-yl)-4,5,6,7-tetrahydro-1H-pyrazolo[4,3-c]pyridine-3-carboxamide]",0.073,,"IC50 [1, 3]: 0.129 µM"
"CC(C)n1nc(C(=O)NCc2ccc(NC(=O)N(C)C)cc2)c2c1CCN(c1ccc(N3C(=O)CC[C@H]3CO)cn1)C2 [Example 69, (S)-N-(4-(3,3-dimethylureido)benzyl)-5-(5-(2-(hydroxymethyl)-5-oxopyrrolidin-1-yl)pyridin-2-yl)-1-isopropyl-4,5,6,7-tetrahydro-1H-pyrazolo[4,3-c]pyridine-3-carboxamide]",,,"EC50 (STAT6; [4]): 1.07 µM; IC50 [1, 5]: 8.11 µM"
"CC(CO)n1nc(C(=O)NCc2ccc(NC(=O)N(C)C)cc2)c2c1CCN(c1ccc(C(=O)N(C)C)cn1)C2 (single isomer, unassigned) [Example 360, rel-(R or S)-5-(5-(dimethylcarbamoyl)pyridin-2-yl)-N-(4-(3,3-dimethylureido)benzyl)-1-(1-hydroxypropan-2-yl)-4,5,6,7-tetrahydro-1H-pyrazolo[4,3-c]pyridine-3-carboxamide]",0.074,,"IC50 [1, 6]: 0.091 µM"
"Cc1ccnc(-c2ccc(CNC(=O)c3nn(C(C)C)c4c3CN(c3ccc(C(=O)N(C)C)cc3)C[C@@H]4C)cc2)n1 [Example 730, (S)-5-(4-(dimethylcarbamoyl)phenyl)-1-isopropyl-7-methyl-N-(4-(4-methylpyrimidin-2-yl)benzyl)-4,5,6,7-tetrahydro-1H-pyrazolo[4,3-c]pyridine-3-carboxamide]",> 10,,"IC50 ([1]; Homo sapiens, 48 h, human whole blood, IL-13 10 ng/mL): > 15.1 µM"
"CC(C)n1nc(C(=O)NCc2ccc(C(=O)NCC3CCN(C)CC3)cc2)c2c1[C@@H](C)CN(c1ccc(C(=O)N(C)C)cn1)C2 [Example 618, (S)-5-(5-(dimethylcarbamoyl)pyridin-2-yl)-1-isopropyl-7-methyl-N-(4-(((1-methylpiperidin-4-yl)methyl)carbamoyl)benzyl)-4,5,6,7-tetrahydro-1H-pyrazolo[4,3-c]pyridine-3-carboxamide]",0.127,0.612,
"CC(C)n1nc(C(=O)NCc2ccc(C(N)=O)cc2)c2c1[C@@H](C)CN(c1ccc(C(=O)N(C)C)cn1)C2 [Example 342, (S)-N-(4-carbamoylbenzyl)-5-(5-(dimethylcarbamoyl)pyridin-2-yl)-1-isopropyl-7-methyl-4,5,6,7-tetrahydro-1H-pyrazolo[4,3-c]pyridine-3-carboxamide]",0.003,,"IC50 [1, 3]: 0.015 µM"
"CC(C)n1nc(C(=O)NCc2ccc(NC(=O)N3CCCNCC3)c(F)c2)c2c1[C@@H](C)CN(c1ccc(C(=O)N(C)C)cc1)C2 [Example 576, (S)-N-(4-(1,4-diazepane-1-carboxamido)-3-fluorobenzyl)-5-(4-(dimethylcarbamoyl)phenyl)-1-isopropyl-7-methyl-4,5,6,7-tetrahydro-1H-pyrazolo[4,3-c]pyridine-3-carboxamide]",0.004,0.019,
"CC(C)n1nc(C(=O)NCc2ccc(NC(=O)N3CCNCC3)cn2)c2c1[C@@H](C)CN(c1ccc(C(=O)N(C)C)cc1)C2 [Example 700, (S)-5-(4-(dimethylcarbamoyl)phenyl)-1-isopropyl-7-methyl-N-((5-(piperazine-1-carboxamido)pyridin-2-yl)methyl)-4,5,6,7-tetrahydro-1H-pyrazolo[4,3-c]pyridine-3-carboxamide]",0.005,0.022,
"CC(C)n1nc(C(=O)NCc2ccc(NC(=O)N3CCC4(CNCCO4)C3)cc2)c2c1CCN(c1ccc(C(=O)N(C)C)cn1)C2 (racemic) [Example 164, rac-(R)-N-(4-((5-(5-(dimethylcarbamoyl)pyridin-2-yl)-1-isopropyl-4,5,6,7-tetrahydro-1H-pyrazolo[4,3-c]pyridine-3-carboxamido)methyl)phenyl)-6-oxa-2,9-diazaspiro[4.5]decane-2-carboxamide]",,,"EC50 (STAT6; [4]): 0.013 µM; IC50 [1, 5]: 0.045 µM"
"CC(C)n1nc(C(=O)NCc2ccc(NC(=O)N3CCC(C)(O)CC3)cc2)c2c1[C@@H](C)CN(c1ccc(C(=O)N(C)C)cn1)C2 [Example 592, (S)-5-(5-(dimethylcarbamoyl)pyridin-2-yl)-N-(4-(4-hydroxy-4-methylpiperidine-1-carboxamido)benzyl)-1-isopropyl-7-methyl-4,5,6,7-tetrahydro-1H-pyrazolo[4,3-c]pyridine-3-carboxamide]",0.001,0.009,
"CCn1nc2c(c1C(=O)NCc1ccc(NC(=O)N(C)C)cc1)CN(c1ccc(C(=O)N(C)C)cn1)[C@H](C)[C@@H]2C (racemic) [Example 314, rac-(6R,7S)-5-(5-(dimethylcarbamoyl)pyridin-2-yl)-N-(4-(3,3-dimethylureido)benzyl)-2-ethyl-6,7-dimethyl-4,5,6,7-tetrahydro-2H-pyrazolo[4,3-c]pyridine-3-carboxamide]",1.07,,"IC50 [1, 3]: 6.85 µM"
"CC(C)n1nc(C(=O)NCc2ccc(NC(=O)N(C)CCO)cc2)c2c1CCN(c1ccc(C(=O)N(C)C)cn1)C2 [Example 180, 5-(5-(dimethylcarbamoyl)pyridin-2-yl)-N-(4-(3-(2-hydroxyethyl)-3-methylureido)benzyl)-1-isopropyl-4,5,6,7-tetrahydro-1H-pyrazolo[4,3-c]pyridine-3-carboxamide]",,,"EC50 (STAT6; [4]): 0.018 µM; IC50 [1, 5]: 0.055 µM"
"CC1CCN(c2ccc(N3CCc4c(c(C(=O)NCc5ccc(NC(=O)N(C)C)cc5)nn4C(C)C)C3)nc2)C1=O (stereo not drawn) [Example 61, N-(4-(3,3-dimethylureido)benzyl)-1-isopropyl-5-(5-(3-methyl-2-oxopyrrolidin-1-yl)pyridin-2-yl)-4,5,6,7-tetrahydro-1H-pyrazolo[4,3-c]pyridine-3-carboxamide]",,,"EC50 (STAT6; [4]): 0.075 µM; IC50 [1, 5]: 2.59 µM"
"CC(C)n1nc(C(=O)NCc2ccc(NC(=O)N(C)C)cc2)c2c1CCN(c1ccc(C(=O)N3Cc4cccnc4C3)cn1)C2 [Example 33, 5-(5-(6,7-dihydro-5H-pyrrolo[3,4-b]pyridine-6-carbonyl)pyridin-2-yl)-N-(4-(3,3-dimethylureido)benzyl)-1-isopropyl-4,5,6,7-tetrahydro-1H-pyrazolo[4,3-c]pyridine-3-carboxamide]",,,"EC50 (STAT6; [4]): 0.002 µM; IC50 [1, 5]: 0.035 µM"
"CC(C)n1nc(C(=O)NCc2ccc(NC(=O)N(C)C)cc2)c2c1C(C(F)F)CN(c1ccc(C(=O)N(C)C)cn1)C2 (single isomer, unassigned) [Example 494, rel-(R or S)-7-(difluoromethyl)-5-(5-(dimethylcarbamoyl)pyridin-2-yl)-N-(4-(3,3-dimethylureido)benzyl)-1-isopropyl-4,5,6,7-tetrahydro-1H-pyrazolo[4,3-c]pyridine-3-carboxamide]",0.0005,,"IC50 [1, 6]: 0.004 µM"
"CC(C)n1nc(C(=O)NCc2ccc(NC(=O)N3CCN(C)CC3)c(F)c2)c2c1[C@@H](C)CN(c1ccc(-n3ccccc3=O)cn1)C2 [Example 610, (S)-N-(3-fluoro-4-(4-methylpiperazine-1-carboxamido)benzyl)-1-isopropyl-7-methyl-5-(2-oxo-2H-[1,3′-bipyridin]-6′-yl)-4,5,6,7-tetrahydro-1H-pyrazolo[4,3-c]pyridine-3-carboxamide]",0.002,0.017,
"CC(C)n1nc(C(=O)NCc2ccc(-c3ncc[nH]3)cc2)c2c1[C@H](C)CN(c1ncc(C(=O)N(C)C)cn1)C2 (single isomer, unassigned) [Example 549]",0.099,1.1,
"CNC(=O)c1ccc(CNC(=O)c2nn(C(C)C)c3c2CN(c2ncc(C(=O)N4Cc5cccnc5C4)cn2)C[C@@H]3C)cc1 [Example 496, (S)-5-(5-(6,7-dihydro-5H-pyrrolo[3,4-b]pyridine-6-carbonyl)pyrimidin-2-yl)-1-isopropyl-7-methyl-N-(4-(methylcarbamoyl)benzyl)-4,5,6,7-tetrahydro-1H-pyrazolo[4,3-c]pyridine-3-carboxamide]",0.004,,"IC50 [1, 3]: 0.016 µM"
